Test results as given in ChEMBL document CHEMBL3856212, “Synthesis, anti-proliferative and genotoxicity studies of 6-chloro-5-(2-substituted-ethyl)-1,3-dihydro-2H-indol-2-ones and 6-chloro-5-(2-chloroethyl)-3-(alkyl/ary-2-ylidene)indolin-2-ones” (Eur J Med Chem, 2016).

How the values were obtained:
[1] = Cytotoxicity against human A498 cells assessed as assessed as growth inhibition at 10^-5 M after 48 hrs by SRB assay relative to control; assay type: functional; details: A498, 48 h, read-out: GI
Mus musculus = organism: Mus musculus; assay: Genotoxicity in mouse EAC cells at 250 uM after 24 hrs by micronucleus assay (reference value: 3.5 +/- 0.30%); assay type: toxicity, cell-based; details: ehrlich
[2] = Cytotoxicity against human PC3 cells assessed as growth inhibition after 48 hrs by SRB assay; assay type: functional; details: PC-3, 48 h
[3] = Cytotoxicity against human SKOV3 cells assessed as growth inhibition after 48 hrs by SRB assay; assay type: functional; details: SK-OV-3, 48 h
[4] = Cytotoxicity against human MALME-3M cells assessed as assessed as growth inhibition at 10^-5 M after 48 hrs by SRB assay relative to control; assay type: functional; details: read-out: GI
[5] = Cytotoxicity against human NCI-ADR-RES cells assessed as assessed as growth inhibition at 10^-5 M after 48 hrs by SRB assay relative to control; assay type: functional; details: read-out: GI
[6] = Cytotoxicity against human U251 cells assessed as growth inhibition after 48 hrs by SRB assay; assay type: functional; details: U-251, 48 h
[7] = Cytotoxicity against human ACHN cells assessed as growth inhibition after 48 hrs by SRB assay; assay type: functional
[8] = Cytotoxicity against human RPMI8226 cells assessed as growth inhibition after 48 hrs by SRB assay; assay type: functional; details: RPMI-8226, 48 h
[9] = Cytotoxicity against human MCF7 cells assessed as growth inhibition after 48 hrs by SRB assay; assay type: functional; details: MCF7, 48 h
[10] = Induction of apoptosis in mouse EAC cells at 500 uM after 24 hrs by acridine orange dye-based fluorescence microscopy (reference value: 0.66 +/- 0.33%); assay type: cell-based; details: ehrlich
[11] = Induction of apoptosis in mouse EAC cells at 375 uM after 24 hrs by acridine orange dye-based fluorescence microscopy (reference value: 0.66 +/- 0.33%); assay type: cell-based; details: ehrlich
[12] = Cytotoxicity against human Hs 578T cells assessed as assessed as growth inhibition at 10^-5 M after 48 hrs by SRB assay relative to control; assay type: functional; details: read-out: GI
[13] = Cytotoxicity against human SF539 cells assessed as growth inhibition after 48 hrs by SRB assay; assay type: functional; details: SF-539, 48 h
[14] = Cytotoxicity against human A549 cells assessed as growth inhibition after 48 hrs by SRB assay; assay type: functional; details: A549, 48 h
[15] = Cytotoxicity against human T47D cells assessed as growth inhibition after 48 hrs by SRB assay; assay type: functional
[16] = Cytotoxicity against human CCRF-CEM cells assessed as growth inhibition after 48 hrs by SRB assay; assay type: functional
[17] = Cytotoxicity against human COLO205 cells assessed as growth inhibition after 48 hrs by SRB assay; assay type: functional; details: COLO 205, 48 h
[18] = Cytotoxicity against human SF295 cells assessed as assessed as growth inhibition at 10^-5 M after 48 hrs by SRB assay relative to control; assay type: functional; details: SF-295, 48 h, read-out: GI
[19] = Cytotoxicity against human OVCAR4 cells assessed as assessed as growth inhibition at 10^-5 M after 48 hrs by SRB assay relative to control; assay type: functional; details: OVCAR-4, 48 h, read-out: GI
[20] = Cytotoxicity against human RXF393 cells assessed as assessed as growth inhibition at 10^-5 M after 48 hrs by SRB assay relative to control; assay type: functional; details: RXF 393, 48 h, read-out: GI
[21] = Cytotoxicity against human SNB19 cells assessed as growth inhibition after 48 hrs by SRB assay; assay type: functional; details: SNB-19, 48 h
[22] = Cytotoxicity against human SK-MEL-5 cells assessed as assessed as growth inhibition at 10^-5 M after 48 hrs by SRB assay relative to control; assay type: functional; details: SK-MEL-5, 48 h, read-out: GI
[23] = Cytotoxicity against human OVCAR8 cells assessed as growth inhibition after 48 hrs by SRB assay; assay type: functional; details: OVCAR-8, 48 h
[24] = Cytotoxicity against human M14 cells assessed as growth inhibition after 48 hrs by SRB assay; assay type: functional; details: M14, 48 h
[25] = Cytotoxicity against human SNB75 cells assessed as assessed as growth inhibition at 10^-5 M after 48 hrs by SRB assay relative to control; assay type: functional; details: SNB-75, 48 h, read-out: GI
[26] = Cytotoxicity against human DU145 cells assessed as growth inhibition after 48 hrs by SRB assay; assay type: functional; details: DU-145, 48 h
[27] = Cytotoxicity against human LOXIMVI cells assessed as assessed as growth inhibition at 10^-5 M after 48 hrs by SRB assay relative to control; assay type: functional; details: LOX IMVI, read-out: GI
[28] = Cytotoxicity against human MOLT4 cells assessed as growth inhibition after 48 hrs by SRB assay; assay type: functional; details: MOLT-4, 48 h
[29] = Cytotoxicity against human LOXIMVI cells assessed as growth inhibition after 48 hrs by SRB assay; assay type: functional; details: LOX IMVI
[30] = Induction of apoptosis in mouse EAC cells at 125 uM after 24 hrs by acridine orange dye-based fluorescence microscopy (reference value: 0.66 +/- 0.33%); assay type: cell-based; details: ehrlich
[31] = Cytotoxicity against human SK-MEL-5 cells assessed as growth inhibition after 48 hrs by SRB assay; assay type: functional; details: SK-MEL-5, 48 h
[32] = Cytotoxicity against human NCI-H23 cells assessed as assessed as growth inhibition at 10^-5 M after 48 hrs by SRB assay relative to control; assay type: functional; details: NCI-H23, 48 h, read-out: GI
[33] = Cytotoxicity against human UACC257 cells assessed as assessed as growth inhibition at 10^-5 M after 48 hrs by SRB assay relative to control; assay type: functional; details: UACC-257, 48 h, read-out: GI
[34] = read-out: LD50 (the source's name)

Molecule O=C1Cc2cc(CCn3cncn3)c(Cl)cc2N1 has an inhibition of growth at 10 µM [1] of 52.9%, an Activity (Mus musculus) of 3.5% and a GI50 [2] of 1000 nM. For the same molecule, the TGI [2] was greater than 1000 nM, the CC50 [2, 34] was greater than 1000 nM and the GI50 [3] was 3.65 µM. It also gave a TGI [3] greater than 1000 nM, a CC50 [3, 34] greater than 1000 nM and an inhibition of growth at 10 µM [4] of 6.24%. For the same molecule, the inhibition of growth at 10 µM [5] was 47.1%, the GI50 [6] was 1450 nM and the TGI [6] was greater than 1000 nM. For the same molecule, the CC50 [6, 34] was greater than 1000 nM, the GI50 [7] was 1000 nM and the TGI [7] was greater than 1000 nM. It also gave a CC50 [7, 34] greater than 1000 nM, a GI50 [8] of 1000 nM and a TGI [8] greater than 1000 nM. The CC50 [8, 34] was greater than 1000 nM, the GI50 [9] was 4.02 µM and the TGI [9] was greater than 1000 nM. The CC50 [9, 34] was greater than 1000 nM, the Activity [10] was 0.36% and the Activity [11] was 0.9%. The inhibition of growth at 10 µM [12] was 71.4%, the GI50 [13] was 1000 nM and the TGI [13] was greater than 1000 nM. It also gave a CC50 [13, 34] greater than 1000 nM, a GI50 [14] of 1650 nM and a TGI [14] greater than 1000 nM. It also gave a CC50 [14, 34] greater than 1000 nM, a GI50 [15] of 1000 nM and a TGI [15] greater than 1000 nM. It also gave a CC50 [15, 34] greater than 1000 nM, a GI50 [16] of 3.5 µM and a TGI [16] greater than 1000 nM. It also gave a CC50 [16, 34] greater than 1000 nM, a GI50 [17] of 2330 nM and a TGI [17] greater than 1000 nM. It also gave a CC50 [17, 34] greater than 1000 nM, an inhibition of growth at 10 µM [18] of 30.7% and an inhibition of growth at 10 µM [19] of 13.2%. It also gave an inhibition of growth at 10 µM [20] of 38%, a GI50 [21] of 7.07 µM and a TGI [21] greater than 1000 nM. The CC50 [21, 34] was greater than 1000 nM, the inhibition of growth at 10 µM [22] was 59.9% and the GI50 [23] was 6.94 µM. For the same molecule, the TGI [23] was greater than 1000 nM, the CC50 [23, 34] was greater than 1000 nM and the GI50 [24] was 3.96 µM. It also gave a TGI [24] greater than 1000 nM, a CC50 [24, 34] greater than 1000 nM and an inhibition of growth at 10 µM [25] of 36.5%. For the same molecule, the GI50 [26] was 1000 nM, the TGI [26] was greater than 1000 nM and the CC50 [26, 34] was greater than 1000 nM. It also gave an inhibition of growth at 10 µM [27] of 19%, a GI50 [28] of 1000 nM and a TGI [28] greater than 1000 nM. It also gave a CC50 [28, 34] greater than 1000 nM, a GI50 [29] of 1000 nM and a TGI [29] greater than 1000 nM. The CC50 [29, 34] was greater than 1000 nM, the Activity [30] was 0.6% and the GI50 [31] was 1010 nM. For the same molecule, the TGI [31] was greater than 1000 nM, the CC50 [31, 34] was greater than 1000 nM and the inhibition of growth at 10 µM [32] was 75.9%. For the same molecule, the inhibition of growth at 10 µM [33] was 48.3%.
